The values below come from US6551999B1, “Angiogenesis inhibitor” (Senju Pharmaceutical Co., Ltd., priority 1995, dated 2003).

Where two headings read alike, the source gives them in different places. Ends that are not written are not given here. Some results are limits rather than exact numbers.

Assay [1] has as its target T1, μ-calpain (Homo sapiens, UniProt P07384).
T1 construct: purchased Nakalai Tesque
T1 sequence (P07384 1-714): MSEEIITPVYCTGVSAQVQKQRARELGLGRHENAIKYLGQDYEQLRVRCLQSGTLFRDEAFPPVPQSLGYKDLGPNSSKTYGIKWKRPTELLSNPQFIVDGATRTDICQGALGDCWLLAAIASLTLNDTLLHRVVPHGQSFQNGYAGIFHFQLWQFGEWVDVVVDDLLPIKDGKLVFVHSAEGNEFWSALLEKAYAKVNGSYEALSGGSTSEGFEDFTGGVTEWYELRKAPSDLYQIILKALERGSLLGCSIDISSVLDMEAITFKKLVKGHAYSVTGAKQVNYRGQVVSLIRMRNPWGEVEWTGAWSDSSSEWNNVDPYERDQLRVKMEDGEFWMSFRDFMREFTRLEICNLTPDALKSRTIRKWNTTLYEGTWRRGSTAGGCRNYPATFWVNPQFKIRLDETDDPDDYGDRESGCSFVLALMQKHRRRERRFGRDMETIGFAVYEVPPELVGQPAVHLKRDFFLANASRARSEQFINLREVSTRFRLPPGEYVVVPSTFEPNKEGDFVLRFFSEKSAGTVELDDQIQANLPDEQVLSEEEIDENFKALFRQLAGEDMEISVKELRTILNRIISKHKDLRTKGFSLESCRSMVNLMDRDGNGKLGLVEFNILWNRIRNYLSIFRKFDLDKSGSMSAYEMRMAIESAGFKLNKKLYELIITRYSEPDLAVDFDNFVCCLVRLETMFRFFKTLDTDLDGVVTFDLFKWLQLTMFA
T1 sequence (P04632 1-268 partner): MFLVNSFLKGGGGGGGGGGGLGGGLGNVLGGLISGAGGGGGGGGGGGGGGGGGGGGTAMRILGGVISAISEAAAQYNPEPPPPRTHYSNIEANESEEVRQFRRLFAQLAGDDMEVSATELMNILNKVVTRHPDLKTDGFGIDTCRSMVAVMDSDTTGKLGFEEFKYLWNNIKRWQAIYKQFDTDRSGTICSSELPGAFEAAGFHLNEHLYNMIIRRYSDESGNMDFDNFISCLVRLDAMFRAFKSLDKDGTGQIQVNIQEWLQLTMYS
As to the kind of experiment: μ-Calpain-inhibitory activity (casein substrate). The class given is biochemical. The note with it: 60 minutes at 30° C., pH 7.4, 4 mM calcium chloride. The protocol:
Thus, to a solution containing 0.5 mg/ml casein, 50 mM Tris-HCl (pH 7.4), 20 mM dithiothreitol, and 4 mM calcium chloride was added 2.5 μl of a dimethyl sulfoxide solution containing a varying concentration of the test drug as well as 0.03 unit of μcalpain to initiate the reaction. The final liquid volume was 250 μl. After 60 minutes of reaction at 30° C., 100 μl of the reaction mixture was transferred to another vessel, to which 50 μl of purified water and 100 μl of 50% Coumassie brilliant blue solution were added. […] As a control, 2.5 μl of dimethyl sulfoxide not containing the test drug was added and the mixture was treated in the same manner as above. […] Similarly, the value found by adding 0.2 mM EDTA in lieu of 4 mM aqueous calcium chloride solution was used as the blank value. […] [formula]

For assay [2], the target named is T2, cathepsin L (Homo sapiens, UniProt P07711).
T2 construct: purchased Cosmo Bio
T2 sequence (P07711 114-333, species assumed): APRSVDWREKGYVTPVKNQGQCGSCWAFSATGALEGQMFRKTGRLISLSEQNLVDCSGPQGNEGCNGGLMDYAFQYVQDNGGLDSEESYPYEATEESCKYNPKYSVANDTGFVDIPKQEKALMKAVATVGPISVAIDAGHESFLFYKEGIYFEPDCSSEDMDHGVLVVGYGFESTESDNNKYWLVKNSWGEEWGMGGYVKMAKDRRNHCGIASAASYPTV
Kind of assay: Assay of cathepsin L-inhibitory activity (Z-Phe-Arg-MCA). The note with it: 20 minutes at 30° C., pH 5.5. In kind it is biochemical. As to the method:
The activity of cathepsin L (Cosmo Bio), a cysteine protease, was assayed by the method described in the literature [Methods in Enzymology, 80, 535-561, 1981]. Thus, to a solution containing 85 mM acetate buffer (pH 5.5), 2 mM dithiothreitol, 1 mM EDTA, 2 μg cathepsin L, and a varying concentration of the test compound was added 50 μl of 20 μM carbobenzoxy-L-phenylalanyl-L-arginine-4-methylcoumaryl-7-amide (Z-Phe-Arg-MCA) to initiate the reaction at the final liquid volume of 200 μl. After 20 minutes of reaction at 30° C., 20 μl of 1 M Tris-HCl (pH 8.0) was added so as to stop the reaction. The amount of liberated 4-methyl-7-aminocoumarin was determined with a fluorospectrometer at an excitation wavelength of 360 nm and a fluorescent emission wave length of 450 nm. Using the value found without addition of the test drug as control and the value found without addition of the enzyme as blank, IC50 was determined in the same manner as above.

Assay [3] concerns the target T3, papain (Carica papaya, UniProt P00784).
T3 sequence (P00784 134-345): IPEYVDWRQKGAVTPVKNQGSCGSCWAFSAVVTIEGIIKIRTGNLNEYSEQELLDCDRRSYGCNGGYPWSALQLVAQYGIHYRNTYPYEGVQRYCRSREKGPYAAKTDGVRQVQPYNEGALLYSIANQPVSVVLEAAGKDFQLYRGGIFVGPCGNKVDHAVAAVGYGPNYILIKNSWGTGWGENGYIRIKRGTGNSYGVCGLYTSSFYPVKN
As to the kind of experiment: Assay of papain-inhibitory activity (casein substrate). In kind it is biochemical. Conditions: 60 minutes at 30° C., pH 8.0. The protocol:
(§1) The activity of papain which is a cysteine protease and of trypsin (Sigma) which is a serine protease was assayed in accordance with the method described in the literature [Anal. Biochem., 208, 387-392, 1993]. Thus, to a solution containing 0.5 mg/ml casein, 50 mM Tris-HCl (pH 8.0), 20 mM dithiothreitol, and 0.2 mM EDTA was added 2.5 μl of dimethyl sulfoxide containing a varying concentration of the test drug as well as 0.03 unit of papain or trypsin to initiate the reaction. The final liquid volume was adjusted to 250 μl. After 60 minutes of reaction at 30° C., 100 μl of the reaction mixture was transferred to another vessel and following addition of 50 μl of purified water and 100 μl of 50% Coumassie brilliant blue solution, the mixture was allowed to stand at room temperature for 15 minutes. The absorbance of the mixture was then measured at 595 nm. Using the value found similarly by adding 2.5 μl of dimethyl sulfoxide not containing the test drug as control and the value found without addition of the enzyme as blank, IC50 was determined in the same manner as above.

Assay [4] has as its target T4, trypsin (UniProt P00760).
T4 sequence (P00760 1-246): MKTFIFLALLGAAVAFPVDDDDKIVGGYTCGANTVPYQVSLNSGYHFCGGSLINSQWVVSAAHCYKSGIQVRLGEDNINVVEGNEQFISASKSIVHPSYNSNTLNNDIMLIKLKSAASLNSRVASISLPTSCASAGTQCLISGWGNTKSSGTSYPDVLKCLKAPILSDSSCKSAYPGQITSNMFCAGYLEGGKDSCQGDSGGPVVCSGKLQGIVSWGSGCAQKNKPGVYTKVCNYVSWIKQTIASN
As to the kind of experiment: Assay of trypsin-inhibitory activity (casein substrate). The class given is biochemical. The note with it: read-out: Trypsin 50% Inhibitory concentration (IC50); 60 minutes at 30° C., pH 8.0. The protocol:
as §1

In assay [5] the test system is angiogenesis in cornea of guinea pig. Kind of assay: Angiogenesis in cornea of guinea pig by transplantation of bFGF-containing pellet. The class given is in vivo. The note with it: 9 days posttransplantation; for Observation of cornea with a slit lamp: appearance of newly formed blood vessels compared to the control group: test pellet (27 mer calpastatin peptide 0.03 and 0.1 μmole, leupeptin 0.1 μmole) together with bFGF (500 ng) pellet; for Wet weight of cornea compared to the control group / Amount of albumin in cornea compared to the control group: test pellet together with bFGF pellet; for Amount of albumin in cornea compared to the control group: SDS-PAGE image analysis. As to the method: (1) Method for Preparing Pellets for Transplantation
A solution (5 μl) of 8% ethylene vinyl acetate copolymer (EVA) in dichloromethane was dropped on a plate made of Tefron, air-dried, and 0.0167 w/v % bFGF (3 μl) was dropped thereon and air-dried. After drying, the obtained product was rounded into a small rod to give a bFGF (500 ng)-containing pellet.
Using a test solution instead of 0.0167 w/v % bFGF, a test solution-containing pellet was prepared in the same manner as above. The test solution-containing pellets were prepared to contain 27 mer calpastatin peptide (0.03 μmole and 0.1 μmule/pellet, Sigma) and leupeptin (0.1 μmole/pellet, PEPTIDE […], INC.).
As a control, a pellet made of EVA alone was prepared and used as a vehicle pellet.
(2) Transplantation of Pellet into Cornea of Guinea Pig
The procedure followed the method of M. Kusaka et al. [Biochem. Biophys. Res. Comm., vol. 174, pp. 1070-1076 (1991)]. That is, male guinea pigs weighing 300-400 g were anesthetized with a 1:1 mixture of Ketalar 50 (ketamin hydrochloride, Sankyo Company, Limited) and Celactal (xylazine hydrochloride, Bayer, Ltd.). A pocket was formed in the intercellular layer of corneal stroma layer of both eyes from corneal limbus to the center of cornea, using a 0.5 mm width ophthalmic spatula. A test solution-containing pellet was inserted into the pocked thus formed, and a bFGF-containing pellet was inserted in adjacency thereto. For prevention of infection, ofloxacin eye ointment [Tarivid eye ointment (ofloxacin 0.3%, manufactured by Santen Pharmaceutical Co., Ltd.) was instilled once immediately after insertion of the pellets. Thereafter, 0.3% lomefloxacin (lomeflon ophthalmic otologic solution, manufactured by Senju Pharmaceutical Co., Ltd.) was instilled once a day for 5 days.
(3) Evaluation of the Effects of Cysteine Protease Inhibitor
The blood vessel newly formed in cornea which is an avascular tissue had high permeability, and the wet weight and plasma content were expected to elevate due to incurrent of plasma components as a result of high permeability. At 9 days posttransplantation of pellet, guinea pigs were euthanized and cornea was collected. The obtained cornea was weighed (wet weight). Then, it was homogenized, and subjected to centrifugation. The obtained water soluble protein was separated by SDS polyacrylamide gel electrophoresis. After electrophoresis, the gel was stained with Coomassie Brilliant Blue. By image analysis (NIH Image 1.31), albumin which is one of the major proteins in plasma was quantitatively assayed. As the standard substance, guinea pig serum albumin was used.

Turning to `O=C(O)[C@H]1O[C@@H]1C(=O)N[C@@H](Cc1ccccc1)C(=O)N1CCN(c2ccc(F)cc2)CC1` [Compound 11], the IC50 in assay [1] was 2.9 µM; in assay [2] it was 0.012 µM; in assay [3], 0.11 µM; in assay [4], above 3000 µM.

Turning to `CC(C)C[C@H](NC(=O)[C@H]1O[C@@H]1C(=O)O)C(=O)N1CCN(c2ccc(F)cc2)CC1` [Compound 13], the IC50 in assay [1] is 0.81 µM; in assay [2], 0.029 µM; in assay [3], 0.079 µM; in assay [4] it was above 3000 µM.

For the compound `Cc1ccc(S(=O)(=O)N2CCN(C(=O)[C@H](CC(C)C)NC(=O)[C@H]3O[C@@H]3C(=O)O)CC2)cc1` [Compound 16, (2s,3s)-3-[[[[(1s)-1-[[4-(4-methylphenylsulfonyl)-1-piperazinyl]carbonyl]-3-methyl]butyl]amino]carbonyl]oxiranecarboxylic acid], the IC50 was 0.64 µM in assay [1], 0.082 µM in assay [2], 0.21 µM in assay [3] and above 3000 µM in assay [4].

On to `CC(=O)N[C@@H](CC(C)C)C(=O)N[C@@H](CC(C)C)C(=O)N[C@H](C=O)CCCNC(=N)N` [leupeptin], for which, in assay [5], the “Observation of cornea with a slit lamp: appearance of newly formed blood vessels compared to the control group” value is given as “the degree of appearance was mild”, the “Wet weight of cornea compared to the control group” value was “suppressed increase in the wet weight of cornea” and the “Amount of albumin in cornea compared to the control group” value is “suppressed increase in the amount of albumin in cornea”.

Take `CCOC(=O)[C@H]1O[C@@H]1C(=O)N[C@@H](CC(C)C)C(=O)N1CCN(c2ccc(F)cc2)CC1` [Compound 3, ethyl (2s,3s)-3-[[[[(1s)-1-[[4-(4-fluorophenyl)-1-piperazinyl]carbonyl]-3-methyl]butyl]amino]carbonyl]oxiranecarboxylate]: in assay [1] (read-out: Calpain 50% inhibitory concentration (IC50)), the IC50 stood at 47 µM.

Take `CC(C)C[C@@H](C=O)NC(=O)[C@@H](NS(=O)(=O)c1ccc(Cl)cc1)C(C)C` [Compound 36, N-(4-chlorophenylsulfonyl)-L-valyl-L-leucinal]: in assay [1], the IC50 came out at 0.031 µM.

As for `CSCC[C@H](NC(=O)[C@H]1O[C@@H]1C(=O)O)C(=O)N1CCN(c2ccccc2Cl)CC1` [Compound 29, (2s,3s)-3-[[[[(1s)-1-[[4-(2-chlorophenyl)-1-piperazinyl]carbonyl]-3-methylthio]propyl]amino]carbonyl]oxiranecarboxylic acid], in assay [1], the IC50 is 0.6 µM.

Regarding `CC(C)(C)[C@H](NS(=O)(=O)c1ccc2ccccc2c1)C(=O)N[C@H](C=O)Cc1c[nH]c2ccccc12` [Compound 51, N-(2-naphthalenesulfonyl)-L-tert-leucyl-L-tryptophanal], the IC50 in assay [1] turned out to be 1.1 µM.

As for `CC(C)[C@H](NC(=O)[C@H]1O[C@@H]1C(=O)O)C(=O)N1CCN(c2ccccc2Cl)CC1` [Compound 21, (2s,3s)-3-[[[[(1s)-1-[[4-(2-chlorophenyl)-1-piperazinyl]carbonyl]-2-methyl]propyl]amino]carbonyl]oxiranecarboxylic acid], in assay [1], the IC50 is 0.95 µM.

“DPMSSTYIEELGKREVTIPPKYRELLA [27 mer calpastatin peptide, from Sigma]”: in assay [5], the “Observation of cornea with a slit lamp: appearance of newly formed blood vessels compared to the control group” value was “the degree of appearance was mild”, the “Wet weight of cornea compared to the control group” value is given as “suppressed increase in the wet weight of cornea” and the “Amount of albumin in cornea compared to the control group” value is “suppressed increase in the amount of albumin in cornea”.
